# Where a SMILES comes first, the peptide text is derived from it. The star is where a group is joined. Cbz = O=C(OCc1ccccc1)*
# Assays:
# CypA [1] = biological target: T1, CypA (Homo sapiens, UniProt P62937); assay: Degradation of endogenous CypA in HeLa cells (western blot); format: cell-based; set-up: The degradation of endogenous CypA in HeLa cells was investigated; endogenous in cells; host or cells: HeLa; conditions: 1 μM epoxomicin, 3 μM MG-132, 1 μM CsA, 10 μM VHL ligand
# Method: (§1) HeLa cells and primary human dermal fibroblasts isolated from neonatal foreskin (HDFn) were adherent cells and were cultured in commercially available, ready-to-use DMEM ([…], Gibco, Waltham, MA, USA) supplemented with 10% (v/v) FBS (Fetal Bovine Serum, Sigma-Aldrich) and antibiotics (Streptomycin/Penicillin, 1:1000 dilution) in polystyrene culture flasks. Growth conditions for all cell lines were maintained in a humidified chamber at 37 °C and 5% CO2. For subculturing or prior counting, the cells were treated with trypsin-EDTA (Life Technologies GmbH, Carlsbad, CA, USA) to detach them from the surface.
# (§2) A total of 5 × 10^5 HeLa cells or HDFn was plated in 6-well plates the day before treatment. […] An amount of 200 μL PROTAC dilutions (0.1 μM and 1.0 μM) in DMSO (final concentration 0.1% (v/v)) were added to the culture medium and incubated at 37.0 °C and 5.0% CO2 for the desired time. As a blank, the cells were incubated with 200 μL DMSO under the same conditions. After the appropriate incubation time, the medium was aspirated, and the cells were washed twice with 1× PBS.
# (§3) Cells were lysed in ice-cold 1× Laemmli buffer (100 mM DTT) after two washes with 1× PBS. After denaturation (95 °C for 5 min) and shearing of the DNA by sonication, the samples were loaded on Tricine-SDS-PAGE, electrophoresed, and blotted onto a PVDF membrane. After staining with S-Ponceau staining solution and blocking, the membranes were incubated overnight at 4 °C in primary rabbit anti-CypA antibody (Cell Signaling Technology #2175S, Danvers, MA, USA) and for 1 h at room temperature with secondary antibody (IRDye® 800 CW Goat anti-Rabbit IgG Secondary Antibody, LI-COR). All membranes were then reprobed with rabbit anti-beta actin (Cell Signaling Technology #4967) to ensure equal protein loading. The intensities of the bands on western blot films were quantified using the LI-COR Odyssey Imaging System and the software Image Studio Lite (version 3.1). The CypA values were normalized to β-actin, and DMSO was arbitrarily assigned a value of 100% for comparison purposes.
# CypA [2] = biological target: T1, CypA; assay: Degradation of CypA in HDFn fibroblasts (western blot); format: cell-based; set-up: endogenous in cells; host or cells: primary PBMCs from healthy donors; conditions: 1 μM epoxomicin, 3 μM MG-132, 1 μM CsA, 10 μM VHL ligand
# Method: as §1, §2, §3
# CypA [3] = biological target: T1, CypA; conditions: cited from earlier work
# T1 sequence (P62937 whole entry): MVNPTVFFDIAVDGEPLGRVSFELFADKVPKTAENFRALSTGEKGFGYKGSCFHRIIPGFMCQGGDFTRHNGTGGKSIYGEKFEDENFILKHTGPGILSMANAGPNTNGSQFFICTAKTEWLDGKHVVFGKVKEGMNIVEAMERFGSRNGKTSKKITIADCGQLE
SMILES,effect of 1 h pre-treatment with the substance on CypA degradation by P3 or P5 (CypA [1]),effect of 1 h pre-treatment with the substance on CypA degradation by P3 or P5 (CypA [2]),CypA inhibitor potency (CypA [3])
CC(C)C[C@@H](C=O)NC(=O)[C@H](CC(C)C)NC(=O)[C@H](CC(C)C)NC(=O)OCc1ccccc1 [MG-132] (Cbz-Leu-Leu-Leu-aldehyde),suppressed,suppressed,–
C/C=C/C[C@@H](C)[C@@H](O)[C@H]1C(=O)N[C@@H](CC)C(=O)N(C)[C@H](C)C(=O)N(CC)[C@@H](C(C)C)C(=O)N[C@@H](C(C)C)C(=O)N(C)[C@@H](CC(C)C)C(=O)N[C@@H](C)C(=O)N[C@H](C)C(=O)N(C)[C@@H](CC(C)C)C(=O)N(C)[C@@H](CC(C)C)C(=O)N(C)[C@@H](C(C)C)C(=O)N1C [Alisporivir],–,–,low nM
"CC[C@H](C)[C@H](NC(=O)[C@H]([C@@H](C)CC)N(C)C(C)=O)C(=O)N[C@H](C(=O)N[C@@H](CC(C)C)C(=O)[C@@]1(C)CO1)[C@@H](C)O [Ep, epoxomicin]",suppressed,suppressed,–
Cc1ncsc1-c1ccc(CNC(=O)[C@@H]2C[C@@H](O)CN2C(=O)[C@@H](N)C(C)(C)C)cc1 [VHL ligand 1],recovery of CypA band,recovery of CypA band,–
